A word on the inhibition: it is the change of the read-out against control, counted positive when it falls. What is called pIC50 is the negative decadic logarithm of the IC50, by convention in mol/L.

Inhibition and IC50 data for three compounds are collected here from ChEMBL document CHEMBL1154469, “Design and synthesis of bisubstrate inhibitors of type 1 17beta-hydroxysteroid dehydrogenase: overview and perspectives” (Eur J Med Chem, 2008).

The structures appear in SMILES notation. pIC50: −log10 of the molar value.

Test [1] addresses T1, 17-beta-hydroxysteroid dehydrogenase type 1 (Homo sapiens) (UniProt P14061).
T1 sequence (whole entry): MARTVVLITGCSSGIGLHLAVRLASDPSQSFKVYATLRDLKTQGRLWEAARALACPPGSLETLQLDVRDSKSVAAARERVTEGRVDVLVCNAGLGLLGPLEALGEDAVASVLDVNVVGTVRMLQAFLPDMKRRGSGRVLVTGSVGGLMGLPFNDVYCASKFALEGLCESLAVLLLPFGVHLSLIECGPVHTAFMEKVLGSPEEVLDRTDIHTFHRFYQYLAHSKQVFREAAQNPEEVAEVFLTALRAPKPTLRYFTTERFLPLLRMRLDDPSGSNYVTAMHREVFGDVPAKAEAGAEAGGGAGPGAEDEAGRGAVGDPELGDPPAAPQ
The test can be described thus: Inhibition of 17beta-HSD1 expressed in HEK 293 cells assessed as conversion of [14C]estrone to [14C]estradiol at 0.1 uM using NADH. It is filed as cell-based. The following applies: HEK293.

Test [2] addresses T2, 17-beta-hydroxysteroid dehydrogenase type 1 (Homo sapiens, UniProt P14061).
T2 sequence (P14061 whole entry): T1 sequence (whole entry)
Put plainly: Inhibition of 17beta-HSD1 expressed in HEK 293 cells assessed as conversion of [14C]estrone to [14C]estradiol using NADPH. It is filed as cell-based, HEK293.

Regarding `C[C@]12CC[C@@H]3c4ccc(O)cc4CC[C@H]3[C@@H]1C[C@H](CCCCCCCCCCCCCc1cccc(CC(=O)O)c1)[C@@H]2O`, in test [1], the inhibition was determined as 49%.

Regarding `C[C@]12CC[C@@H]3c4ccc(O)cc4CC[C@H]3[C@@H]1C[C@H](CCCCCCCCCCCCCc1cc(N)cc(CC(=O)O)c1)[C@@H]2O`, in test [1], the inhibition amounted to 27%.

`C[C@]12CC[C@@H]3c4ccc(O)cc4CC[C@H]3[C@@H]1C[C@H](CCCCCCCCC(=O)OC[C@H]1O[C@@H](n3cnc4c(N)ncnc43)[C@H](O)[C@@H]1O)[C@@H]2O`: in test [2], the negative logarithm of the IC50 (pIC50) was 8.10.
